Assay results as given in patent US8691189B2, “Method of colorectal cancer detection by using radiolabeled anti-GRP78 peptide” (Institute of Nuclear Energy Research, Atomic Energy Council, priority 2011, dated 2014).
Where no end group is shown, it is not given here.

Biological target: T1, GRP78 (Mus musculus, UniProt P20029)
T1 construct: endogenous in cells; CT26 named for the mouse model
Test: Immunofluorescence cell staining of colorectal cancer cells
Type: cell-based
Conditions: FITC-labeled, 1:50, 4° C. overnight, FIG. 3
Procedure: (A) Immunofluorescence cell staining 4: • (A1) Cell culturing 40: • I. A few colorectal cancer cells are cultured in a RPMI1640 of 10% fetal bovine serum (FBS) (containing 2 mM glutamine, penicillin (100 U/ml) and streptomycin ([…])). • II. The cells are put in a culture chamber having 5% CO2 at 37° C. • III. After being fully grown, the cells adhered on culture dishes are reacted with 0.05% Trypsin and are washed down. • IV. The cells washed down are further washed with a Hank's balanced salts solution. • V. The washed cells are obtained at a number about 1×10^4 to be put into a chamber slide having eight individual sections for further culturing. • VI. […] The sliced tissues are washed with a normal saline solution for 3 times each time for 5 minutes. • (A4) Fluorescence microscopy observation 43: • I. The sliced tissues are fully dried for observation with a microscope. • II. […] A fluorescence image is captured with a digital camera device. • IV. An image of the cells is captured under a visible light as a reference to the fluorescence image.
(A) Fluorescence immunoassay 7: • (A1) Fluorescence immunoassay of colorectal cancer 71: • As modern studies show, colorectal cancer cells and tissues show a lot of GRP78. […] As a result, the anti-GRP78 peptide is able to detect expression of GRP78 in colorectal cancer cell. • (A2) Fluorescence immunoassay of colorectal cancer tissue 72: […]

T1 sequence (P20029 20-655): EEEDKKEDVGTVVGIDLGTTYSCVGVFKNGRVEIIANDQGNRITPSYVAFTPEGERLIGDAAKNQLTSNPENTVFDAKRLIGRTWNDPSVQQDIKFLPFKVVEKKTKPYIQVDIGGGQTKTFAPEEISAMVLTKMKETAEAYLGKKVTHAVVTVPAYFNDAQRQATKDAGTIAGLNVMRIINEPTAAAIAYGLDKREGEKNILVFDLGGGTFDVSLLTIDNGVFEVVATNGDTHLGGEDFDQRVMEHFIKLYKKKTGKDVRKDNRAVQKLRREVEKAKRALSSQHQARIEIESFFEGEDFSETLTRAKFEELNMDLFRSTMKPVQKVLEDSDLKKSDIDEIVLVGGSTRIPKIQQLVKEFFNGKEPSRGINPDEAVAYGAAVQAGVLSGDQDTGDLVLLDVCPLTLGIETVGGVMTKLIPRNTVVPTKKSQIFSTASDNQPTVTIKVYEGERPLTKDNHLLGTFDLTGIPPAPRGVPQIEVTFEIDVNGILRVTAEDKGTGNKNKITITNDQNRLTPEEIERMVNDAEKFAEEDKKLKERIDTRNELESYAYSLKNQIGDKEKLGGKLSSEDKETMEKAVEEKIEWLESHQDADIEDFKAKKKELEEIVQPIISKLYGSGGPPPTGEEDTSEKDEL

| Substance | fluorescence expression (detection of GRP78 expression in colorectal cancer cell) |
| --- | --- |
| fluorescein isothiocyanate [pure FITC] | no fluorescence expression |
| YIFPYIELC [anti-GRP78 peptide] | obvious fluorescence expression |
